Measured values from patent US20230203126A1, “A COMPOSITION COMPRISING S-ARRESTIN PEPTIDES” (WORG PHARMACEUTICALS (HANGZHOU) CO., LTD., priority 2019, published 2023).

T1: HLA-DR3 (HLA-DRA and DRB1*0301) on CD11c+ dendritic cells of DR3tg mice (human, UniProt P01903 26-254; P79483 30-266)
T1 construct: whole, on cells; DR3tg mice express the HLA-DRB1*0301 molecule but not the mouse MHC-II molecule; also called MHC class II; MHC II molecules
T1 MHC II alpha: not shown
T1 MHC II beta: not shown


target: T2, HLA-DR2 (DRA*0101 and DRB1*1501) on CD11c+ dendritic cells of DR2tg mice (human, UniProt P01903 26-254; P01911 30-266); assay: in vivo MHC class II loading assay, DR2tg mice, read out by IFNy of peptide-specific CD4+ T cells; conditions: not given
T2 construct: whole, on cells; DR2tg mice express the HLA-DRB1*1501 molecule but not the mouse MHC class II molecule; also called MHC class II; MHC II molecules
Description: (§1) FIG. 1: Peptide 9K1K is correctly loaded on MHC class II in vivo. Response of peptide-specific CD4+ T cells towards peptide loaded in vivo on dendritic cells is shown. HLA-DR2-transgenic mice were injected subcutaneously with 100 µg of 9K1K peptide. 2 h post injection, spleens were dissected and CD11 c+ cells (dendritic cells) were isolated. These CD11c+ cells were co-cultured with peptide-specific CD4+ cells for 72 h at 37° C. IFNy was measured in the supernatant of these cultures to evaluate the response to peptide by the CD4+ T cells. (* p<0.05 Mann-Whitney U-test)
DR3tg or DR2tg mice were injected with 100 µg of peptide in 100 µl PBS subcutaneously (s.c.) in the flank. Control animals received a s.c. injection of 100 µl PBS. After 2 hours, spleens were harvested and single-cell suspensions were prepared. CD11 c+ cells were positively selected using CD11c microbeads according to the manufacturer’s instructions (Miltenyi Biotec, Bergisch Gladbach, Germany). Average purities of >92% were reached. […] After 72 hours, supernatant of these co-cultures was collected and CD4+ T cell activation was analysed by IFNy ELISA (R&D Systems, Abingdon, UK). In a parallel experiment, CD4+ T cell responses towards peptide added in vitro were assessed to make sure the T cells recognize the peptides presented by the CD11 c+ cells.

| Molecule | binding result |
| --- | --- |
| H-KKKAFVEQVANVVLKKK-NH2 (Synthetic S-Ag (S-arrestin) derived peptide with KKK added at both ends) [9K1K] | binds |

test system: SAg-specific hybridoma cells with fresh or fixed APC (VAVY) cells, MHCII; assay: Antigen processing independent presentation system (APIPS) assay; type: cell-based, DR3tg mice; conditions: 10 or 25 µg/ml peptide, IL-2 ELISA after 48 h
Description: FIG. 10: Variants of peptide 15N3K are apitopes. The ability of variants of the 15N3K peptide to behave as apitopes (i.e. bind to an MHCII molecule and be presented to a T cell by an antigen-presenting cell without undergoing antigen processing) was tested using an APIPS assay. DR3tg mice were immunised with SAg and hybridoma’s were generated. 5*10^4 SAg-specific hybridoma cells were cultured with 5*10^4 fresh or fixed commercial APC (VAVY) cells. Cultures were stimulated with 10 or 25 µg/ml of peptide, as indicated in the graph. T cell activation was measured by IL-2 ELISA on supernatants collected after 48 h. The graph represents the mean of duplicate measurements ± SEM.
Apitopes (Antigen Processing-Independent epiTOPES) are capable of binding to an MHCII molecule and stimulating a response from SAg-specific T cells without further antigen processing. Variants of peptide 15N3K (SEQ ID NO: 3) were tested for their ability to bind to an MHCII molecule and be presented to a T cell hybridoma without further antigen processing in an in vitro antigen processing independent presentation system (APIPS) assay. In other words, peptides consisting of parts of peptide 15N3K and peptides with various degrees of sequence identity with peptide 15N3K were tested for their ability to behave as apitopes.
All but three of the peptides are apitopes.
Antigen-specific hybridoma clones were tested for their reactivity to the peptides, presented by fixed or not fixed (fresh) cells (APCs). 5x10^4 cells were cultured with 10 µg/ml and 25 µg/ml peptide and 5x10^4 fixed or fresh APCs. To fix APCs, cells were incubated with 0.5% paraformaldehyde (Merck, Darmstadt, Germany) (pH7) for 5 min at room temperature (RT). The fixation reaction was stopped by adding 0.4 M glycine (Sigma-Aldrich) and washing the cells in RPMI-10% FCS. After 48 h, antigen-induced IL-2 production was measured by ELISA (R&D Systems, Abingdon, UK).

| Molecule | Apitope |
| --- | --- |
| IFKKISRDKSVTIYLG (H-IFKKISRDKSVTIYLG-NH2) [HIP-15CD, variant of peptide 15N3K] | Yes |
| ISRDKSVTIYLG (H-ISRDKSVTIYLG-NH2) [HIP-15G3, variant of peptide 15N3K] | No |
| KKISRDKSVTIYLG (H-KKISRDKSVTIYLG-NH2) [HIP-15E1, variant of peptide 15N3K] | Yes |
| KKKIFKKISRDKSVTIYLGKKK (H-KKKIFKKISRDKSVTIYLGKKK-NH2) [HIP-15CD-KKK, variant of peptide 15N3K] | Yes |
| KKKISRDKSVTIYLGKKK (H-KKKISRDKSVTIYLGKKK-NH2) [HIP-15G3-KKK, variant of peptide 15N3K] | Yes |
| KKKKKISRDKSVTIYLGKKK (H-KKKKKISRDKSVTIYLGKKK-NH2) [HIP-15E1-KKK, variant of peptide 15N3K] | Yes |
| KKKVIFKKISRDKSVKKK (H-KKKVIFKKISRDKSVKKK-NH2) [HIP-15B3-KKK, variant of peptide 15N3K] | No |
| KKKVIFKKISRDKSVTIKKK (H-KKKVIFKKISRDKSVTIKKK-NH2) [HIP-15B1-KKK, variant of peptide 15N3K] | Yes |
| KKKVIFKKISRDKSVTIYLKKK (H-KKKVIFKKISRDKSVTIYLKKK-NH2) [HIP-15BC-KKK, variant of peptide 15N3K] | Yes |
| MAASGKTSKSEPNHVIFKKISRDKSV TIYLGNRDYIDHVSQV (H-MAASGKTSKSEPNHVIFKKISRDKSVTIYLGNRDYIDHVSQV-NH2) [HIP-115, variant of peptide 15N3K] | Yes |
| VIFKKISRDKSV (H-VIFKKISRDKSV-NH2) [HIP-15B3, variant of peptide 15N3K] | No |
| VIFKKISRDKSVTI (H-VIFKKISRDKSVTI-NH2) [HIP-15B1, variant of peptide 15N3K] | Yes |
| VIFKKISRDKSVTIYL (H-VIFKKISRDKSVTIYL-NH2) [HIP-15BC, variant of peptide 15N3K] | Yes |

Target: T1, HLA-DR3 (HLA-DRA and DRB1*0301) on …
Assay: in vivo MHC class II loading assay, DR3tg mice, read out by IFNy of peptide-specific CD4+ T cells
Conditions: not given
Description: as §1, with “2:” for “1:”, “17JK” for “9K1K”, “HLA-DR3-transgenic” for “HLA-DR2-transgenic”, “CD11c+” for “CD11 c+”, “(*** p<0.001” for “(* p<0.05”
FIG. 3: Peptide 15N3K is correctly loaded on MHC class II in vivo. Response of peptide-specific CD4+ T cells towards peptide loaded in vivo on dendritic cells is shown. HLA-DR3-transgenic mice were injected subcutaneously with 100 µg of 15N3K peptide. 2h post injection, spleens were dissected and CD11c+ cells (dendritic cells) were isolated. These CD11c+ cells were co-cultured with peptide-specific CD4+ cells for 72 h at 37° C. IFNy was measured in the supernatant of these cultures to evaluate the response to peptide by the CD4+ T cells. (*** p<0.001 Mann-Whitney U-test)
DR3tg or DR2tg mice were injected with 100 µg of peptide in 100 µl PBS subcutaneously (s.c.) in the flank. Control animals received a s.c. injection of 100 µl PBS. After 2 hours, spleens were harvested and single-cell suspensions were prepared. […]

| Molecule | binding result |
| --- | --- |
| H-KKKLTFRRDLYFSRVQVYKKK-NH2 (Synthetic S-Ag derived peptide with KKK added at both ends) [17JK] | binds |
| H-KKKVIFKKISRDKSVTIYLGKKK-NH2 (Synthetic S-Ag derived peptide with KKK added at both ends) [15N3K] | binds |
